pIC50: −log10 of the molar value. Some results are limits rather than exact numbers.

Consider five molecules from US20210038563A1, “NEW SPIRONOLACTONE FORMULATIONS AND THEIR USE” (Apidel SA, priority 2018, published 2021).

The subject of data set [1] is dexamethasone-induced delayed corneal wound healing. Description: Corneal re-epithelialization evaluation (fluorescein test) after corneal de-epithelialization. Format: in vivo, New Zealand white rabbit. The following applies: Day 4; mean ± SD. As for the experimental part: Fifty male albino New Zealand rabbits weighing approximately 2.3-3.0 kg were included for this study (Iris Pharma, France). Animals were housed individually in standard cages, under identical environmental conditions. The temperature was kept at 15-21° C. and the relative humidity was >45%. Rooms were continuously ventilated (>15 air volumes per hour). Temperature and relative humidity were continuously controlled and recorded. Animals were routinely exposed (in-cage) to a 10-200 1× light in a 12-hour light/dark cycle (from 7:00 a.m. to 7:00 p.m.). Animals had enrichment and free access to food (150 g/day) and were allowed water ad libitum. All animals were healthy and free of clinically observable ocular abnormalities throughout the study. […]
The animals were anesthetized by an intramuscular injection of a ketamine-xylazine mixture. […] De-epithelialization was monitored by fluorescein staining. […]
The size of the corneal wound was evaluated using the fluorescein test immediately after ocular debridement and once a day before the first instillation of the day. A baseline was recorded before the de-epithelialization. […] Images of the corneal lesion (area stained by fluorescein) were taken using a CCD camera and analyzed using image J software. […]

A further data set has as its system MR. The settings on record: Corvol et al. [19]; cited from earlier work.
Data set [2] deals with mineralocorticoid receptor. The settings on record: Sutanto et al. [20]; read-out: half maximal inhibitory concentrations (IC50); cited from earlier work.
For data set [3] the following is noted: [26, 27]; cited from earlier work.

For `C[C@@H]1C[C@H]2[C@@H]3CCC4=CC(=O)C=C[C@]4(C)[C@@]3(F)[C@@H](O)C[C@]2(C)[C@@]1(O)C(=O)CO` [DXM, Dexamethasone], the “Mean percentage of re-epithelialization” value in data set [1] worked out at 84.6±13.9%. With `C[C@]12CCC(=O)C=C1C=C[C@@H]1[C@@H]2CC[C@@]2(C)[C@H]1CC[C@@]2(O)CCC(=O)O` [CANK, potassium canrenoate], the “Affinity for the MR” value in the data set on MR was “very low affinity”. For the same molecule, the pIC50 in data set [2] is less than 6.00.

`CC(=O)S[C@@H]1CC2=CC(=O)CC[C@]2(C)[C@H]2CC[C@@]3(C)[C@@H](CC[C@@]34CCC(=O)O4)[C@H]12` [SPL, 7α-Acetylthio-17α-hydroxy-3-oxopregn-4-ene-21-carboxylic acid γ-lactone]: the plasma half-life in data set [3] is listed as 1.4 h. Take `CS[C@@H]1CC2=CC(=O)CC[C@]2(C)[C@H]2CC[C@@]3(C)[C@@H](CC[C@@]34CCC(=O)O4)[C@H]12` [TMSPL, 7α-thiomethylspironolactone]: the plasma half-life in data set [3] is on record as 13.8 h. Regarding `C[C@]12CCC(=O)C=C1C=C[C@@H]1[C@@H]2CC[C@@]2(C)[C@H]1CC[C@@]21CCC(=O)O1` [CAN, Canrenone], the “Affinity for the MR, fold lower as compared to SPL” value in the data set on MR was 10 fold.
